According to patent publication US10670605B2, “Cysteine reactive probes and uses thereof” (The Scripps Research Institute, priority 2015, dated 2020):

How the values were obtained:
Experiment in all cases: Competitive isoTOP-ABPP in situ (fragment-treated cells)
Format in all cases: cell-based
[1] = molecular target: T1, cysteines in MDA-MB-231 and Ramos cells (Homo sapiens, UniProt P25205)
T1 sequence (P25205 1-808): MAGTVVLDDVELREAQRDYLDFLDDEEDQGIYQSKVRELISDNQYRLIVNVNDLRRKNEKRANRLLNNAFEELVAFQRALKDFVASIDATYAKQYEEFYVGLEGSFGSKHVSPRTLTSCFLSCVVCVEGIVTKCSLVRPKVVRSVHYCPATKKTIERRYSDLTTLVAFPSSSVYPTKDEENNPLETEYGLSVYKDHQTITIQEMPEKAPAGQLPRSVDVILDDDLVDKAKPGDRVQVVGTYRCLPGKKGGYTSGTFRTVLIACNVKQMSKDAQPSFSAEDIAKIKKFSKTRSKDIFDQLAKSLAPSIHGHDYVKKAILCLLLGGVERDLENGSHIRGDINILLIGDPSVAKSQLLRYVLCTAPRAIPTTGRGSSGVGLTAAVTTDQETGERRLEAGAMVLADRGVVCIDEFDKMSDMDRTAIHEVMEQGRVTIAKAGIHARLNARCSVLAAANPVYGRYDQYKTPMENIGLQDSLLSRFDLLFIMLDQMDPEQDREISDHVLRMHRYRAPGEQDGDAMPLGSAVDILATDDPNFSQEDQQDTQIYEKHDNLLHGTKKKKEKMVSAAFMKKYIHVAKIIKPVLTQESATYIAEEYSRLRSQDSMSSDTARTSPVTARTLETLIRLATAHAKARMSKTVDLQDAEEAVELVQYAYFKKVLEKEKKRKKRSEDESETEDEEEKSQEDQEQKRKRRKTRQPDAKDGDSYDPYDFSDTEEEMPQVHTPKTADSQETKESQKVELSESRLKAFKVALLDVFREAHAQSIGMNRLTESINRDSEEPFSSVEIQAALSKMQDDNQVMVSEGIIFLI

[2] = molecular target: T2, cysteines in MDA-MB-231 and Ramos cells (Homo sapiens, UniProt O75521)
T2 sequence (O75521 39-394): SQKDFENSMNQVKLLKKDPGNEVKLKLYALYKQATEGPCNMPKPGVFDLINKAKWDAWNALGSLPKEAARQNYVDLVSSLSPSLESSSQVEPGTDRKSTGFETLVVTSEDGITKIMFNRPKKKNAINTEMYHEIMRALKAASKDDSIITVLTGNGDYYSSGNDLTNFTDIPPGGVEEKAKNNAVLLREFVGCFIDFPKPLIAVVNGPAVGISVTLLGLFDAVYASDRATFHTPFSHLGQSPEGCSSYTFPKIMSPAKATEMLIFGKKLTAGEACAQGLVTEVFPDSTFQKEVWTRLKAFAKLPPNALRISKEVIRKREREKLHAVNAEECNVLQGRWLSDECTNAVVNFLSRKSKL

[3] = molecular target: T3, cysteines in MDA-MB-231 and Ramos cells (Homo sapiens, UniProt Q96S55)
T3 sequence (Q96S55 1-665): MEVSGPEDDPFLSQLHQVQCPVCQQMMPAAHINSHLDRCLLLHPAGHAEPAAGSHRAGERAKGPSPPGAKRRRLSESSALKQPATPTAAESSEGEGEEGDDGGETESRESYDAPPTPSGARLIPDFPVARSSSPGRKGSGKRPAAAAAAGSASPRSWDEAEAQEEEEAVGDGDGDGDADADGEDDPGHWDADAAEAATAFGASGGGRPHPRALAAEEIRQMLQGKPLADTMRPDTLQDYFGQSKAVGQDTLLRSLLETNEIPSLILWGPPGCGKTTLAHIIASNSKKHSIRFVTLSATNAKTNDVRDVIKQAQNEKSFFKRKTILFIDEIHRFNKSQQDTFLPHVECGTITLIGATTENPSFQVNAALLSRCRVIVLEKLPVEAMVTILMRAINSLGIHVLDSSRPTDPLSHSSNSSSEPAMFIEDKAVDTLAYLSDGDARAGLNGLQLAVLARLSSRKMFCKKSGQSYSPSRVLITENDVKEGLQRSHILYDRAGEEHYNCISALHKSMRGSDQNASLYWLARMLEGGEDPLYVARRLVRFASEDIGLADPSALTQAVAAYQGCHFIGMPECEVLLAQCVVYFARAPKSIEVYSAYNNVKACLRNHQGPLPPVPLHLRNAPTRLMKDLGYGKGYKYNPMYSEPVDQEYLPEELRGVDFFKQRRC

[4] = molecular target: cysteines in MDA-MB-231 and Ramos cells (Homo sapiens, UniProt Q9Y696)
[5] = molecular target: T4, cysteines in MDA-MB-231 and Ramos cells (Homo sapiens, UniProt P49588)
T4 sequence (P49588 1-968): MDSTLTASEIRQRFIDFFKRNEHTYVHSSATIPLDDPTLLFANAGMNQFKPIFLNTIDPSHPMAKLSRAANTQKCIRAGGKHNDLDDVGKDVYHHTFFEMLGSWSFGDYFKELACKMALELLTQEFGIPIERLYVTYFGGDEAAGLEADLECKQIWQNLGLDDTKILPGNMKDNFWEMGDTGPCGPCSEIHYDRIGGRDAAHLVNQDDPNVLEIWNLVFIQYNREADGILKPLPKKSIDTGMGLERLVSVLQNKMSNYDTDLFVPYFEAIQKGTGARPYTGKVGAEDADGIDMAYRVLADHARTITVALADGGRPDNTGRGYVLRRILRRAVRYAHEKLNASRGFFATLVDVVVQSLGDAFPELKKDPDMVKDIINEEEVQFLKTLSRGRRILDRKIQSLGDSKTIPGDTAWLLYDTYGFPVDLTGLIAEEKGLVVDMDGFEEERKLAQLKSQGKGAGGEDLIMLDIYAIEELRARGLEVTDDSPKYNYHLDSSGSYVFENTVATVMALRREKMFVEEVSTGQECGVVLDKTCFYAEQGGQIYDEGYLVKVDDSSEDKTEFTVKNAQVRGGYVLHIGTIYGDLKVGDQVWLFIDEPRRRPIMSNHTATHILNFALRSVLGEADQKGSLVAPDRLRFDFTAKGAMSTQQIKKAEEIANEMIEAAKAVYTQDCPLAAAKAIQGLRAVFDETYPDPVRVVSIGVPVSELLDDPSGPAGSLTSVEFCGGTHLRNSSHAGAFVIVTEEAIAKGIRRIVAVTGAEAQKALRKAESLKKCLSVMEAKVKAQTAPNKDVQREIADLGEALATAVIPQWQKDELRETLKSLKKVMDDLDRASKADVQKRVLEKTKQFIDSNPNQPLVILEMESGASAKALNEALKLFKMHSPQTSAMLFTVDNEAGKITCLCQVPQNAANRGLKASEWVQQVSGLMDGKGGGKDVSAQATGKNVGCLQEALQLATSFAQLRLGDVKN

cysteines in MDA-MB-231 and Ramos cells (Homo sapiens, UniProt Q9Y696), sequence (Q9Y696 whole entry): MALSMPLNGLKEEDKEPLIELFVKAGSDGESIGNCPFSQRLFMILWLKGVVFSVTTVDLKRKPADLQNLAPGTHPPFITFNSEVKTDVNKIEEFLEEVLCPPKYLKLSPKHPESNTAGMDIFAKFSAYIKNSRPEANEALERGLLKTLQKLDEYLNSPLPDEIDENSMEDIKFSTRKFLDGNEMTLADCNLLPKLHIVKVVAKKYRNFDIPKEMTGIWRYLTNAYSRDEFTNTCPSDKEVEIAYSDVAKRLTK

Structure (SMILES)	isoTOP-ABPP ratio P25205_C119 ([1]; 200 μM, insitu, 231)	isoTOP-ABPP ratio O75521_C380 ([2]; 200 μM, insitu, 231)	isoTOP-ABPP ratio Q96S55_C272 ([3]; 200 μM, insitu, 231)	isoTOP-ABPP ratio Q9Y696_C35 ([4]; 200 μM, insitu, 231)	isoTOP-ABPP ratio O75521_C312 ([2]; 200 μM, insitu, 231)	isoTOP-ABPP ratio P49588_C773 ([5]; 200 μM, insitu, 231)	further results
COc1ccc(C2CC(c3cccs3)=NN2C(=O)CCl)cc1 (stereo not shown) [compound 4]	–	–	–	–	–	–	isoTOP-ABPP reactivity P25205_C119 MCM3 ([1]; 100 μM in situ 231): 4.3; isoTOP-ABPP reactivity O75521_C312 ECI2 ([2]; 100 μM in situ 231): 1.0; isoTOP-ABPP reactivity O75521_C380 ECI2 ([2]; 100 μM in situ 231): 1.6; isoTOP-ABPP reactivity Q96S55_C272 WRNIP1 ([3]; 100 μM in situ 231): 3.7; isoTOP-ABPP reactivity Q9Y696_C35 CLIC4 ([4]; 100 μM in situ 231): 20.0; isoTOP-ABPP reactivity P49588_C773 AARS ([5]; 100 μM in situ 231): 1.3
O=C(CCl)Nc1cccc2ncccc12 [compound 51]	2.6	1.0	0.9	2.6	–	–	–
CC1CCc2ccccc2N1C(=O)CCl (stereo not shown) [compound 45]	6.2	1.2	2.5	1.4	0.7	10.1	–
O=C(CCl)NC(=O)NC12CC3CC(CC(C3)C1)C2 [compound 12]	1.0	1.9	2.4	20.0	4.2	0.9	–
O=C(CCl)N1CCN(S(=O)(=O)c2ccccc2F)CC1 [compound 10]	2.3	4.8	1.2	2.7	5.0	2.1	isoTOP-ABPP ratio Q9Y696_C35 ([4]; 200 μM, insitu, ramos): 1.6; isoTOP-ABPP ratio P49588_C773 ([5]; 200 μM, insitu, ramos): 1.7
O=C(CCl)N1CCN(CC(=O)N2CCOCC2)CC1 [compound 29]	–	–	–	–	–	–	isoTOP-ABPP ratio P25205_C119 ([1]; 200 μM, insitu, ramos): 1.3; isoTOP-ABPP ratio O75521_C380 ([2]; 200 μM, insitu, ramos): 1.2; isoTOP-ABPP ratio Q9Y696_C35 ([4]; 200 μM, insitu, ramos): 1.0; isoTOP-ABPP ratio P49588_C773 ([5]; 200 μM, insitu, ramos): 1.1
CC(C)CCOCCNC(=O)CCl [compound 27]	1.0	1.6	0.9	1.0	1.1	0.6	–
O=C(CCl)N1CCC(Cc2ccccc2)CC1 [compound 9]	–	–	–	–	–	–	isoTOP-ABPP reactivity P25205_C119 MCM3 ([1]; 200 μM, insitu, 231): 1.9; isoTOP-ABPP reactivity O75521_C312 ECI2 ([2]; 200 μM, insitu, 231): 0.5; isoTOP-ABPP reactivity O75521_C380 ECI2 ([2]; 200 μM, insitu, 231): 0.7; isoTOP-ABPP reactivity Q96S55_C272 WRNIP1 ([3]; 200 μM, insitu, 231): 4.5; isoTOP-ABPP reactivity Q9Y696_C35 CLIC4 ([4]; 200 μM, insitu, 231): 2.6; isoTOP-ABPP reactivity P49588_C773 AARS ([5]; 200 μM, insitu, 231): 1.5
